Target: T1, F508delCFTR cell surface expression in CFBE41o-F508delCFTR-HRP cells (Homo sapiens, UniProt P13569, DEL508-508)
T1 construct: fused on or other part: Horseradish peroxidase (HRP) reporter inserted in the fourth exofacial (extracellular) loop of CFTR; expression is doxycycline-inducible
Assay: Cell Surface Expression-Horse Radish Peroxidase (CSE-HRP) Assay
Type: cell-based
Details: for EC50: CFBE41o-F508delCFTR-HRP cells, 18-24 hours at 33° C., 8-point curve, highest concentration 20 μM; for Maximum % activity (%): maximum at any tested concentration, normalized to on-plate positive control (3 μM)
Source text: Cell Surface Expression-Horse Radish Peroxidase (CSE-HRP) Assay:
A cellular assay for measuring the F508delCFTR cell surface expression after correction with test compounds was developed in human lung derived epithelial cell line (CFBE41o-) (Veit G et al, (2012) Mol Biol Cell. 23(21): 4188-4202). This was achieved by expressing the F508delCFTR mutation along with a horseradish peroxidase (HRP) in the fourth exofacial loop and then measuring the HRP activity using luminescence readout from these cells, CFBE41o-F508delCFTR-HRP, that were incubated overnight with the test corrector compounds. Briefly, for this primary assay, the CFBE41o-F508delCFTR-HRP cells were plated in 384-well plates (Greiner Bio-one; Cat 781080) at 4,000 cells/well along with 0.5 μg/mL doxycycline to induce the F508delCFTR-HRP expression and further incubated at 37° C., 5% CO2 for 72 hours. The test compounds were then added at the required concentrations and further incubated for 18-24 hours at 33° C. The highest concentration tested was 20 μM with an 8-point concentration response curve using a 3-fold dilution. Three replicate plates were run to determine one EC50. All plates contained negative controls (dimethyl sulfoxide, DMSO) and positive controls (3 μM of 3-[(2R,4R)-4-({[1-(2,2-difluoro-1,3-benzodioxol-5-yl)cyclopropyl]carbonyl}amino)-7-methoxy-3,4-dihydro-2H-chromen-2-yl]benzoic acid) as well as on-plate concentration response of the positive control. Post incubation, the plates were washed 5× times with Dulbecco's phosphate buffered saline (DPBS), followed by the addition of the HRP substrate, luminol (50 μL), and measuring the HRP activity using luminescence readout on EnVision® Multilabel Plate Reader (Perkin Elmer; product number 2104-0010). The raw counts from the experiment are analyzed using Accelrys® Assay Explorer v3.3.
Z′ greater than 0.5 was used as passing quality control criteria for the plates.
The Z′ is defined as: 1−[3*SDPositive Control+3*SDNegative Control/Absolute(MeanPositive Control−MeanNegative Control)] wherein “SD” is standard deviation.
The % activity measured at each of the 8 test concentrations of the test compound was normalized to the on-plate positive control using the following formula: % activity=[(test compound response DMSO response)/(positive control response DMSO response)]*100
The maximum % activity achieved for the test compound at any tested concentration is presented in Table 1 along with the EC50 calculated using the following general sigmoidal curve with variable Hill slope equation (described as Model 42 in the Accelrys® Assay Explorer v3.3 software): y=(a−d)/(1+(x/c)^b)+d
General sigmoidal curve with concentration, response, top, bottom, EC50 and Hill slope.
This model describes a sigmoidal curve with an adjustable baseline, a. The equation can be used to fit curves where response is either increasing or decreasing with respect to the independent variable, “x”.
“x” is a concentration of drug under test.
“a” is the maximum response, and “d” is the minimum response
“c” is the inflection point (EC50) for the curve. That is, “y” is halfway between the lower and upper asymptotes when x=c.
“b” is the slope-factor or Hill coefficient. The sign of b is positive when the response increases with increasing dose and is negative when the response decreases with increasing dose (inhibition).

T1 sequence (P13569 with tags, fused parts or gaps DEL508-508 limits assumed): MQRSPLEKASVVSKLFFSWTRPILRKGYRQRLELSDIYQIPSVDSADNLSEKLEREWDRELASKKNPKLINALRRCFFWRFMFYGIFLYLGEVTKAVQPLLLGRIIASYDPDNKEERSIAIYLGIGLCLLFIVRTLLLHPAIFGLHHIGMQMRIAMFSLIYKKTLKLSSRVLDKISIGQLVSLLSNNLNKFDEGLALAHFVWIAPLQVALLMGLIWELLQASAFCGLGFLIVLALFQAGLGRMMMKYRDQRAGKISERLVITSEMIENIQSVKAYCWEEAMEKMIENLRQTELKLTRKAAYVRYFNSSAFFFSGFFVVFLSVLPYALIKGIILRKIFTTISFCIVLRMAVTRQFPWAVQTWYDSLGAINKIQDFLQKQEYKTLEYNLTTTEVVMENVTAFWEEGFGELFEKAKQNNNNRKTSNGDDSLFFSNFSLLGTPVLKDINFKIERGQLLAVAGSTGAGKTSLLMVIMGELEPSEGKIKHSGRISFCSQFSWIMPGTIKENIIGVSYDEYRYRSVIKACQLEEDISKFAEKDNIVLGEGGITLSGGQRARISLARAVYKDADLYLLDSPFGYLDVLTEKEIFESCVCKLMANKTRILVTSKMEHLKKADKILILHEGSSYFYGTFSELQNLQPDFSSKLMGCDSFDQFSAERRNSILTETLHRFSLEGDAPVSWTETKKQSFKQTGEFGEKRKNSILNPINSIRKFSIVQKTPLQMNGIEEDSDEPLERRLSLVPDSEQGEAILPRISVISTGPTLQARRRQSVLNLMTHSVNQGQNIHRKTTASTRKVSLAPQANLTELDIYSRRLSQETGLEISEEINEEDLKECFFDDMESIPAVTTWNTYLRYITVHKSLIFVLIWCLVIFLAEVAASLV
T1 sequence (P13569 919-1480 limits assumed, stated change not applied): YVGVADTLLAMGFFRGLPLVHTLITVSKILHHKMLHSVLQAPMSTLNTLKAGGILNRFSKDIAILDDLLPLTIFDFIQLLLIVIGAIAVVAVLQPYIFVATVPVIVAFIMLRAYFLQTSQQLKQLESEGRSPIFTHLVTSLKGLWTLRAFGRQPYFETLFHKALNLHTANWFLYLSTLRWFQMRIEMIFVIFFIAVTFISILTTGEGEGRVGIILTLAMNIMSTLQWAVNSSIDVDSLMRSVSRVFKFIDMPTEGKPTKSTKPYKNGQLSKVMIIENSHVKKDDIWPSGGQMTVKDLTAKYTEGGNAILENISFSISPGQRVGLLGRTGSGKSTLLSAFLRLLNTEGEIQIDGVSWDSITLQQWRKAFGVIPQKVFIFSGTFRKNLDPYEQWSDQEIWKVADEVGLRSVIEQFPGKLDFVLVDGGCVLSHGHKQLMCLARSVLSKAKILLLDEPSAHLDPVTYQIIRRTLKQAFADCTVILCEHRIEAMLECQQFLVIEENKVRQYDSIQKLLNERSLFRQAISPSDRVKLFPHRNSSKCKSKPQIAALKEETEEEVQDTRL

EC50 [nM]	Maximum % activity (%)	Structure (SMILES)
8810	72	COc1ccc2c(c1)O[C@@H](c1cccc(C(=O)O)c1)C[C@H]2NC(=O)[C@]1(C)COc2cc3c(cc21)OC(F)(F)O3 [Example 13, 3-[(2R,4R)-4-{[(7S)-2,2-difluoro-7-methyl-6,7-dihydro-2H-furo[2,3-f][1,3]benzodioxole-7-carbonyl]amino}-7-methoxy-3,4-dihydro-2H-1-benzopyran-2-yl]benzoic acid]
380	187	COc1ccc2c(c1)O[C@@H](c1cccc(C(=O)O)c1)C[C@H]2NC(=O)[C@@]1(C)COc2cc3c(cc21)OC(F)(F)O3 [Example 14, 3-[(2R,4R)-4-{[(7R)-2,2-difluoro-7-methyl-6,7-dihydro-2H-furo[2,3-f][1,3]benzodioxole-7-carbonyl]amino}-7-methoxy-3,4-dihydro-2H-1-benzopyran-2-yl]benzoic acid]
150	143	COC(=O)c1ccc([C@H]2C[C@@H](NC(=O)C3(C)COc4cc5c(cc43)OC(F)(F)O5)c3ccc(OC)cc3O2)cc1 (stereo partly drawn) [Example 15, methyl 4-{(2R,4R)-4-[(2,2-difluoro-7-methyl-6,7-dihydro-2H-furo[2,3-f][1,3]benzodioxole-7-carbonyl)amino]-7-methoxy-3,4-dihydro-2H-1-benzopyran-2-yl}benzoate]
60	150	COc1ccc2c(c1)O[C@@H](c1ccc(C(=O)O)cc1)C[C@H]2NC(=O)C1(C)COc2cc3c(cc21)OC(F)(F)O3 (stereo partly drawn) [Example 16, 4-{(2R,4R)-4-[(2,2-difluoro-7-methyl-6,7-dihydro-2H-furo[2,3-f][1,3]benzodioxole-7-carbonyl)amino]-7-methoxy-3,4-dihydro-2H-1-benzopyran-2-yl}benzoic acid]
8770	31	COC(=O)c1ccc([C@H]2C[C@@H](NC(=O)[C@]3(C)COc4cc5c(cc43)OC(F)(F)O5)c3ccc(OC)cc3O2)cc1 [Example 17, methyl 4-[(2R,4R)-4-{[(7S)-2,2-difluoro-7-methyl-6,7-dihydro-2H-furo[2,3-f][1,3]benzodioxole-7-carbonyl]amino}-7-methoxy-3,4-dihydro-2H-1-benzopyran-2-yl]benzoate]
5750	91	COc1ccc2c(c1)O[C@@H](c1ccc(C(=O)O)cc1)C[C@H]2NC(=O)[C@]1(C)COc2cc3c(cc21)OC(F)(F)O3 [Example 18, 4-[(2R,4R)-4-{[(7S)-2,2-difluoro-7-methyl-6,7-dihydro-2H-furo[2,3-f][1,3]benzodioxole-7-carbonyl]amino}-7-methoxy-3,4-dihydro-2H-1-benzopyran-2-yl]benzoic acid]
80	130	COC(=O)c1ccc([C@H]2C[C@@H](NC(=O)[C@@]3(C)COc4cc5c(cc43)OC(F)(F)O5)c3ccc(OC)cc3O2)cc1 [Example 19, methyl 4-[(2R,4R)-4-{[(7R)-2,2-difluoro-7-methyl-6,7-dihydro-2H-furo[2,3-f][1,3]benzodioxole-7-carbonyl]amino}-7-methoxy-3,4-dihydro-2H-1-benzopyran-2-yl]benzoate]
640	156	C[C@]1(C(=O)N[C@@H]2C[C@H](c3cccc(C(=O)O)c3)Oc3ccccc32)COc2cc3c(cc21)OC(F)(F)O3 [Example 22, 3-[(2R,4R)-4-{[(7R)-2,2-difluoro-7-methyl-6,7-dihydro-2H-furo[2,3-f][1,3]benzodioxole-7-carbonyl]amino}-3,4-dihydro-2H-1-benzopyran-2-yl]benzoic acid]
180	127	C[C@]1(C(=O)N[C@@H]2C[C@H](c3ccc(C(=O)O)cc3)Oc3ccccc32)COc2cc3c(cc21)OC(F)(F)O3 [Example 23, 4-[(2R,4R)-4-{[(7R)-2,2-difluoro-7-methyl-6,7-dihydro-2H-furo[2,3-f][1,3]benzodioxole-7-carbonyl]amino}-3,4-dihydro-2H-1-benzopyran-2-yl]benzoic acid]
1180	70	CC1(C)OC[C@@H](Cn2nc(-c3ccccc3)cc(NC(=O)C3(C)COc4cc5c(cc43)OC(F)(F)O5)c2=O)O1 (stereo partly drawn) [Example 24, N-(2-{[(4R)-2,2-dimethyl-1,3-dioxolan-4-yl]methyl}-3-oxo-6-phenyl-2,3-dihydropyridazin-4-yl)-2,2-difluoro-7-methyl-6,7-dihydro-2H-furo[2,3-f][1,3]benzodioxole-7-carboxamide]
980	85	CC1(C)OC[C@@H](Cn2nc(-c3ccccc3)cc(NC(=O)[C@@]3(C)COc4cc5c(cc43)OC(F)(F)O5)c2=O)O1 [Example 26, (7R)—N-(2-{[(4R)-2,2-dimethyl-1,3-dioxolan-4-yl]methyl}-3-oxo-6-phenyl-2,3-dihydropyridazin-4-yl)-2,2-difluoro-7-methyl-6,7-dihydro-2H-furo[2,3-f][1,3]benzodioxole-7-carboxamide]
1420	112	COC(=O)c1cccc(-n2nc(C3CC3)cc(NC(=O)[C@@]3(C)COc4cc5c(cc43)OC(F)(F)O5)c2=O)c1 [Example 28, methyl 3-[3-cyclopropyl-5-{[(7R)-2,2-difluoro-7-methyl-6,7-dihydro-2H-furo[2,3-f][1,3]benzodioxole-7-carbonyl]amino}-6-oxopyridazin-1(6H)-yl]benzoate]
1070	155	C[C@]1(C(=O)Nc2cc(C3CC3)nn(-c3cccc(C(=O)O)c3)c2=O)COc2cc3c(cc21)OC(F)(F)O3 [Example 29, 3-[3-cyclopropyl-5-{[(7R)-2,2-difluoro-7-methyl-6,7-dihydro-2H-furo[2,3-f][1,3]benzodioxole-7-carbonyl]amino}-6-oxopyridazin-1(6H)-yl]benzoic acid]
> 20000	7	C[C@@]1(C(=O)Nc2cc(C3CC3)nn(-c3ccc(C(=O)O)cc3)c2=O)COc2cc3c(cc21)OC(F)(F)O3 [Example 31, 4-[3-cyclopropyl-5-{[(7S)-2,2-difluoro-7-methyl-6,7-dihydro-2H-furo[2,3-f][1,3]benzodioxole-7-carbonyl]amino}-6-oxopyridazin-1(6H)-yl]benzoic acid]
210	132	COC(=O)c1cccc(-n2nc(C3CC3)cc(NC(=O)C3(C)COc4cc5c(cc43)OC(F)(F)O5)c2=O)c1 (stereo not drawn) [Example 40, methyl 3-{3-cyclopropyl-5-[(2,2-difluoro-7-methyl-6,7-dihydro-2H-furo[2,3-f][1,3]benzodioxole-7-carbonyl)amino]-6-oxopyridazin-1(6H)-yl}benzoate]
> 20000	3	CC1(C)OC[C@@H](Cn2nc(-c3ccccc3)cc(NC(=O)[C@]3(C)COc4cc5c(cc43)OC(F)(F)O5)c2=O)O1 [Example 41, (7S)—N-(2-{[(4R)-2,2-dimethyl-1,3-dioxolan-4-yl]methyl}-3-oxo-6-phenyl-2,3-dihydropyridazin-4-yl)-2,2-difluoro-7-methyl-6,7-dihydro-2H-furo[2,3-f][1,3]benzodioxole-7-carboxamide]
1060	61	COc1ccc2c(c1)O[C@@H](c1ccc(C(=O)O)cc1)C[C@H]2NC(=O)[C@@]1(C)CCc2c1ccc1c2OCO1 [Example 42, 4-[(2R,4R)-7-methoxy-4-{[(6S)-6-methyl-7,8-dihydro-2H,6H-indeno[4,5-d][1,3]dioxole-6-carbonyl]amino}-3,4-dihydro-2H-1-benzopyran-2-yl]benzoic acid]
930	153	Cc1ccc(NC(=O)C2(C)CCc3cc4c(cc32)OC(F)(F)O4)nc1-c1cccc(C(=O)O)c1 (stereo not drawn) [Example 51, 3-{6-[(2,2-difluoro-5-methyl-6,7-dihydro-2H,5H-indeno[5,6-d][1,3]dioxole-5-carbonyl)amino]-3-methylpyridin-2-yl}benzoic acid]

Source: patent US9840513B2 (AbbVie S.à.r.l., priority 2015, dated 2017)
